Series [1] concerns RAW264.7. The series can be described thus: Cytotoxicity against mouse RAW264.7 cells at 80 uM after 24 hrs by MTT assay. The class given is cell-based. The settings on record: raw264.7, 24 h.
Series [2] relates to RAW264.7. The series can be described thus: Antiinflammatory activity in mouse RAW264.7 cells assessed as inhibition of LPS-induced NO production incubated for 2 hrs prior to LPS-challenge measured after 24 hrs by Griess method. It counts as functional, cell-based.
For series [3], the system named is RAW264.7. The series can be described thus: Cytotoxicity against mouse LPS-challenged RAW264.7 cells at 80 uM after 24 hrs by MTT assay. The following applies: raw264.7, 24 h. The class given is cell-based.
For series [4], the system named is RAW264.7. The series can be described thus: Antiinflammatory activity in mouse RAW264.7 cells assessed as inhibition of LPS-induced NO production at 50 uM incubated for 2 hrs prior to LPS-challenge measured after 24 hrs by Griess method. The class given is functional.
In series [5] the target is T1, NF-kappa-B inhibitor alpha (Mus musculus) (UniProt Q9Z1E3).
T1 sequence (whole entry): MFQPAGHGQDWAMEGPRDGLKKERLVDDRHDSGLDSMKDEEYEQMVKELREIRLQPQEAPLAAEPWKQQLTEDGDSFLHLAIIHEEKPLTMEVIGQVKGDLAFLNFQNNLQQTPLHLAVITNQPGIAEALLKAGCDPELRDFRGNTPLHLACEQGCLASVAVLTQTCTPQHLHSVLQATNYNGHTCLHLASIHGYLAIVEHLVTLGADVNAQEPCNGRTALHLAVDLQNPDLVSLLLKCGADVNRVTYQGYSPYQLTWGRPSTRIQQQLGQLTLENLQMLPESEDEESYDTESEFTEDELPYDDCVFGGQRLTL
The series can be described thus: Inhibition of IkappaB phosphorylation in mouse RAW264.7 cells assessed as decrease in LPS-induced phospho-IkappaBalpha level at 75 uM incubated for 2 hrs prior to LPS-challenge measured after 30 mins by Western blot analysis. The class given is cell-based.

The test system of series [6] is RAW264.7. The series can be described thus: Antiinflammatory activity in mouse RAW264.7 cells assessed as inhibition of LPS-stimulated IL-1beta mRNA expression at 75 uM incubated for 2 hrs prior to LPS-challenge measured after 8 hrs by quantitative real time PCR analysis. The class given is functional, cell-based.
Series [7] relates to RAW264.7. Nature of the series: Inhibition of ERK phosphorylation in mouse LPS-induced RAW264.7 cells at 75 uM incubated for 2 hrs prior to LPS-challenge measured after 30 mins by Western blot analysis. It counts as cell-based.
Series [8] deals with MAP kinase p38 (Mus musculus) (UniProt P47811+O08911+Q9WUI1+Q9Z1B7). The series can be described thus: Inhibition of MAPK p38 in mouse LPS-induced RAW264.7 cells at 75 uM incubated for 2 hrs prior to LPS-challenge measured after 30 mins by Western blot analysis. The class given is cell-based.
The subject of series [9] is RAW264.7. The series can be described thus: Antiinflammatory activity in mouse RAW264.7 cells assessed as inhibition of LPS-stimulated TNF-alpha mRNA expression at 75 uM incubated for 2 hrs prior to LPS-challenge measured after 8 hrs by quantitative real time PCR analysis. The class given is functional, cell-based.
Series [10] deals with T1, NF-kappa-B inhibitor alpha (Mus musculus). The series can be described thus: Inhibition of IkappaBalpha in mouse RAW264.7 cells assessed as inhibition of LPS-stimulated NF-kappaB p65 subunit accumulation in nucleus at 75 uM incubated for 2 hrs prior to LPS-challenge measured after 30 mins by Western blot analysis. It counts as cell-based.
Series [11] relates to RAW264.7. The series can be described thus: Antiinflammatory activity in mouse RAW264.7 cells assessed as inhibition of LPS-stimulated IL-6 mRNA expression at 75 uM incubated for 2 hrs prior to LPS-challenge measured after 8 hrs by quantitative real time PCR analysis. The class given is functional, cell-based.
The target in series [12] is T1, NF-kappa-B inhibitor alpha (Mus musculus). The series can be described thus: Inhibition of IkappaBalpha degradation in mouse LPS-induced RAW264.7 cells assessed as increase in cytosolic IkappaB level at 75 uM incubated for 2 hrs prior to LPS-challenge measured after 30 mins by Western blot analysis. It counts as cell-based.
Series [13] relates to RAW264.7. Nature of the series: Inhibition of JNK phosphorylation in mouse LPS-induced RAW264.7 cells at 75 uM incubated for 2 hrs prior to LPS-challenge measured after 30 mins by Western blot analysis. The class given is cell-based.
In series [14] the test system is Mus musculus. Nature of the series: Antiinflammatory activity in ICR mouse assessed as protection against LPS-induced sepsis at 50 mg/kg, ip administered for 5 days prior to LPS-challenge measured after 2 hrs. It counts as functional, organism-based. On the set-up: dose 50 mg/kg.
The test system of series [15] is RAW264.7. Nature of the series: Antiinflammatory activity in mouse RAW264.7 cells assessed as inhibition of LPS-induced iNOS protein expression at 75 uM incubated for 2 hrs prior to LPS-challenge measured after 24 hrs by Western blot analysis. It counts as functional, cell-based.
Series [16] concerns Mus musculus. The series can be described thus: Antiinflammatory activity in ICR mouse assessed as reversal in LPS-induced weight loss at 20 mg/kg, ip administered for 5 days prior to LPS-challenge measured up to day 8 relative to control. It counts as functional, organism-based. Also noted: dose 20 mg/kg.
Series [17] deals with Mus musculus. Nature of the series: Antiinflammatory activity in ICR mouse assessed as protection against LPS-induced sepsis at 20 mg/kg, ip administered for 5 days prior to LPS-challenge measured after 2 hrs. The class given is functional, organism-based. On the set-up: dose 20 mg/kg.
Series [18] deals with Mus musculus. The series can be described thus: Antiinflammatory activity in ICR mouse assessed as reversal in LPS-induced weight loss at 20 mg/kg, ip administered for 5 days prior to LPS-challenge measured from day 9 to 11 relative to control. It counts as functional, organism-based. Also noted: dose 20 mg/kg.

The source made the active and inactive calls. The calls are words filed in the database; no cut-off is given here.

Consider `CC1(C)C(=O)C=C[C@]2(C)C3=CC=C4[C@@H]5C[C@@](C)(C(N)=O)CC[C@]5(C)CC[C@@]4(C)[C@]3(C)CC[C@@H]12`, for which the Activity result in series [1] and in series [3] was “Non-toxic” in each case. In addition, the IC50 in series [2] stood at 40.1 µM. The inhibition at 50 µM in series [4] is 32.5%.

For the compound `CC1(C)C(=O)C(O)=C[C@]2(C)C3=CC=C4[C@@H]5C[C@@](C)(C(=O)n6ccnc6)CC[C@]5(C)CC[C@@]4(C)[C@]3(C)CC[C@@H]12`, the Activity entry in [1] and in series [3] was “Non-toxic” in each case. Further, the IC50 in series [2] was determined as 6.22 µM. In addition, the inhibition at 50 µM in series [4] came out at 99%.

Regarding `CC1(C)C(=O)C(O)=C[C@]2(C)C3=CC=C4[C@@H]5C[C@@](C)(C(N)=O)CC[C@]5(C)CC[C@@]4(C)[C@]3(C)CC[C@@H]12`, the Activity result in series [1] and in [3] was “Non-toxic” in each case. The IC50 in series [2] was 35.1 µM. Also, the inhibition at 50 µM in series [4] was determined as 37.5%.

As for `COC(=O)[C@@]1(C)CC[C@]2(C)CC[C@]3(C)C(=CC=C4[C@@]5(C)C=C(O)C(=O)C(C)(C)[C@@H]5CC[C@]43C)[C@@H]2C1`, the Activity entry in [1] and in [3] was “Non-toxic” in each case. Also, the IC50 in [2] is 38.6 µM. Further, the inhibition at 50 µM in series [4] was found to be 33.3%.

Consider `CC1(C)[C@@H](O)CC[C@]2(C)[C@H]3C(=O)C=C4[C@@H]5C[C@@](C)(C(=O)O)CC[C@]5(C)CC[C@@]4(C)[C@]3(C)CC[C@@H]12` [ENOXOLONE], for which the inhibition entry in [5], in series [6], in series [7], in series [8], in series [9] and in [10] was “Active” in each case. Moreover, the inhibition result in series [11], in series [12], in series [13] and in series [15] was “Active” each time. Moreover, in [2], the IC50 was determined as 188 µM. Also, the outcome in [14] was Active. The inhibition at 50 µM in series [4] stood at 5.12%.

As for `CC1(C)[C@@H](O)CC[C@]2(C)C3=CC=C4[C@@H]5C[C@@](C)(C(=O)O)CC[C@]5(C)CC[C@@]4(C)[C@]3(C)CC[C@@H]12`, the Activity result in series [1] and in [3] was “Non-toxic” throughout. In addition, in series [2], the IC50 is over 50 µM. Besides, in series [4], the inhibition at 50 µM was found to be 15.6%.

As to `CC1(C)C(=O)C(O)=C[C@]2(C)C3=CC=C4[C@@H]5C[C@@](C)(C(=O)O)CC[C@]5(C)CC[C@@]4(C)[C@]3(C)CC[C@@H]12`, the Activity result in [1] and in series [3] was “Non-toxic” throughout. In addition, in [2], the IC50 was determined as 32.8 µM. Moreover, the inhibition at 50 µM in series [4] is 42.1%.

In the case of `CC1(C)C(=O)CC[C@]2(C)C3=CC=C4[C@@H]5C[C@@](C)(C(=O)O)CC[C@]5(C)CC[C@@]4(C)[C@]3(C)CC[C@@H]12`, the Activity result in [1] and in series [3] was “Non-toxic” throughout. Further, in series [2], the IC50 is over 50 µM. Besides, in series [4], the inhibition at 50 µM was determined as 7.36%.

In the case of `COC(=O)[C@@]1(C)CC[C@]2(C)CC[C@]3(C)C(=CC=C4[C@@]5(C)C=CC(=O)C(C)(C)[C@@H]5CC[C@]43C)[C@@H]2C1`, the Activity result in [1] and in [3] was “Non-toxic” each time. The IC50 in series [2] is over 50 µM. For the same compound, the inhibition at 50 µM in [4] turned out to be 5.5%.

In the case of `C[C@@H]1C[C@H]2[C@@H]3CCC4=CC(=O)C=C[C@]4(C)[C@@]3(F)[C@@H](O)C[C@]2(C)[C@@]1(O)C(=O)CO` [DEXAMETHASONE], in series [16], the result was inactive. The IC50 in series [2] came out at 1.43 µM. Also, the outcome in series [17] and in [18] was Active. Moreover, in [4], the inhibition at 50 µM stood at 98.2%.

Turning to `COC(=O)[C@@]1(C)CC[C@]2(C)CC[C@]3(C)C(=CC=C4[C@@]5(C)C=C(C#N)C(=O)C(C)(C)[C@@H]5CC[C@]43C)[C@@H]2C1`, the Activity entry in series [1] and in series [3] was “Non-toxic” in each case. For the same compound, the concentration for half-maximal inhibition (IC50) in [2] is 20 µM. For the same compound, the inhibition at 50 µM in series [4] worked out at 67.3%.

For `CC1(C)C(=O)C(I)=C[C@]2(C)C3=CC=C4[C@@H]5C[C@@](C)(C(=O)O)CC[C@]5(C)CC[C@@]4(C)[C@]3(C)CC[C@@H]12`, the Activity result in series [1] and in series [3] was “Non-toxic” throughout. Further, the IC50 in series [2] is 20.1 µM. Also, the inhibition at 50 µM in [4] is 60.3%.

In the case of `COC(=O)[C@@]1(C)CC[C@]2(C)CC[C@]3(C)C(=CC=C4[C@@]5(C)C=C(I)C(=O)C(C)(C)[C@@H]5CC[C@]43C)[C@@H]2C1`, the Activity result in [1] and in [3] was “Non-toxic” throughout. For the same compound, the IC50 in series [2] was over 50 µM. The inhibition at 50 µM in series [4] stood at 15.3%.

Consider `CC1(C)C(=O)C=C[C@]2(C)C3=CC=C4[C@@H]5C[C@@](C)(C(=O)O)CC[C@]5(C)CC[C@@]4(C)[C@]3(C)CC[C@@H]12`, for which the Activity result in series [1] and in series [3] was “Non-toxic” in each case. The IC50 in [2] is over 50 µM. Further, the inhibition at 50 µM in series [4] worked out at 25.1%.

Regarding `CC1(C)C(=O)C=C[C@]2(C)C3=CC=C4[C@@H]5C[C@@](C)(C#N)CC[C@]5(C)CC[C@@]4(C)[C@]3(C)CC[C@@H]12`, the Activity result in series [1] and in series [3] was “Non-toxic” in each case. Also, in [2], the IC50 is 28.5 µM. Moreover, the inhibition at 50 µM in series [4] stood at 50.2%.

As for `CNC(=O)[C@@]1(C)CC[C@]2(C)CC[C@]3(C)C(=CC=C4[C@@]5(C)C=C(O)C(=O)C(C)(C)[C@@H]5CC[C@]43C)[C@@H]2C1`, the Activity result in [1] and in [3] was “Non-toxic” in each case. Further, the IC50 in [2] was over 50 µM. The inhibition at 50 µM in [4] is 27.6%.

On to `CC1(C)C(=O)C(I)=C[C@]2(C)C3=CC=C4[C@@H]5C[C@@](C)(C#N)CC[C@]5(C)CC[C@@]4(C)[C@]3(C)CC[C@@H]12`, for which the Activity entry in series [1] and in series [3] was “Non-toxic” in each case. Further, in series [2], the IC50 came to 25.1 µM. Moreover, the inhibition at 50 µM in [4] turned out to be 52.9%.

As for `CC1(C)C(=O)C(C#N)=C[C@]2(C)C3=CC=C4[C@@H]5C[C@@](C)(C(=O)O)CC[C@]5(C)CC[C@@]4(C)[C@]3(C)CC[C@@H]12`, the Activity entry in series [1] and in [3] was “Non-toxic” in each case. For the same compound, the IC50 in series [2] turned out to be 3.08 µM. In [4], the inhibition at 50 µM was determined as 98.4%.
